Data reported in the supplement of paper PMC13380429.

What was measured:
Vero E6 [1] = test: cell viability relative to DMSO; higher = less toxic; conditions: 72 h
HepG2 [2] = test: as above; conditions: 72 h
Calu-3 [3] = test: as above; conditions: 72 h
Caco-2 [4] = test: as above; conditions: 72 h
U2OS [5] = test: as above; conditions: 72 h
Vero E6 [6] = test: relative viability EC50 (midpoint between 100% and the lowest measured viability); higher = less toxic; conditions: 72 h
Calu-3 [7] = test: as above; conditions: 72 h
Caco-2 [8] = test: as above; conditions: 72 h
U2OS [9] = test: as above; conditions: 72 h
[10] = tested on: A549-ACE2 infected with SARS-CoV-2; test: SARS-CoV-2 infection rate relative to DMSO; higher = more infection; conditions: 24 h
[11] = tested on: A549-ACE2 infected with SARS-CoV-2; test: morphology score (similarity to uninfected cells); higher = more like uninfected cells; conditions: 24 h
A549-ACE2 [12] = test: phospholipidosis EC50; higher = less potent phospholipidosis inducer
Vero E6 [13] = test: drug sensitivity score (DSS) for viability; higher = more toxic; extreme values may be limits of the assay; conditions: 72 h
HepG2 [14] = test: as above; conditions: 72 h
Calu-3 [15] = test: as above; conditions: 72 h
Caco-2 [16] = test: as above; conditions: 72 h
U2OS [17] = test: as above; conditions: 72 h
[18] = tested on: A549-ACE2 infected with SARS-CoV-2; test: cell count relative to DMSO; higher = less toxic; conditions: 24 h
A549-ACE2 [19] = test: drug-induced phospholipidosis relative to tamoxifen; higher = more phospholipidosis
HepG2 [20] = test: relative viability EC50 (midpoint between 100% and the lowest measured viability); higher = less toxic; conditions: 72 h

COc1cc(-n2cnc3cc(-c4ccc(Cl)cc4)sc3c2=O)ccc1OCCN1CCCC1
cell viability (Vero E6 [1]; 1 nM): 110% | cell viability (Vero E6 [1]; 10 nM): 104% | cell viability (Vero E6 [1]; 100 nM): 107% | cell viability (Vero E6 [1]; 1000 nM): 93.4% | cell viability (Vero E6 [1]; 10000 nM): 93.6% | cell viability (HepG2 [2]; 1 nM): 108% | cell viability (HepG2 [2]; 10 nM): 108% | cell viability (HepG2 [2]; 100 nM): 108% | cell viability (HepG2 [2]; 1000 nM): 93.9% | cell viability (HepG2 [2]; 10000 nM): 73.2% | cell viability (Calu-3 [3]; 1 nM): 102% | cell viability (Calu-3 [3]; 10 nM): 102% | cell viability (Calu-3 [3]; 100 nM): 100% | cell viability (Calu-3 [3]; 1000 nM): 101% | cell viability (Calu-3 [3]; 10000 nM): 89.3% | cell viability (Caco-2 [4]; 1 nM): 111% | cell viability (Caco-2 [4]; 10 nM): 88.4% | cell viability (Caco-2 [4]; 100 nM): 104% | cell viability (Caco-2 [4]; 1000 nM): 103% | cell viability (Caco-2 [4]; 10000 nM): 88.7% | cell viability (U2OS [5]; 1 nM): 92.4% | cell viability (U2OS [5]; 10 nM): 95.9% | cell viability (U2OS [5]; 100 nM): 95.7% | cell viability (U2OS [5]; 1000 nM): 102% | cell viability (U2OS [5]; 10000 nM): 90.6% | relative viability EC50 (Vero E6 [6]): > 10 µM | relative viability EC50 (Calu-3 [7]): > 10 µM | relative viability EC50 (Caco-2 [8]): > 10 µM | relative viability EC50 (U2OS [9]): > 10 µM | SARS-CoV-2 infection rate ([10]; 0.3 µM): 98% | SARS-CoV-2 infection rate ([10]; 3 µM): 73% | SARS-CoV-2 infection rate ([10]; 10 µM): 20% | SARS-CoV-2 infection rate ([10]; 30 µM): 18% | morphology score ([11]; 0.3 µM): 0.28 | morphology score ([11]; 3 µM): 0.6 | morphology score ([11]; 10 µM): 0.87 | morphology score ([11]; 30 µM): 0.67 | phospholipidosis EC50 (A549-ACE2 [12]; 24 h): 12.9 µM | phospholipidosis EC50 (A549-ACE2 [12]; 48 h): 16.7 µM | phospholipidosis EC50 (A549-ACE2 [12]; 72 h): 21 µM | drug sensitivity score (Vero E6 [13]): 0 | drug sensitivity score (HepG2 [14]): 2 | drug sensitivity score (Calu-3 [15]): 0 | drug sensitivity score (Caco-2 [16]): 0 | drug sensitivity score (U2OS [17]): 0 | cell count ([18]; 0.3 µM): 104% | cell count ([18]; 3 µM): 116% | cell count ([18]; 10 µM): 120% | cell count ([18]; 30 µM): 120% | drug-induced phospholipidosis (A549-ACE2 [19]; 0.3 µM, 24 h): 0.98% | drug-induced phospholipidosis (A549-ACE2 [19]; 0.3 µM, 48 h): 1.08% | drug-induced phospholipidosis (A549-ACE2 [19]; 0.3 µM, 72 h): 2.44% | drug-induced phospholipidosis (A549-ACE2 [19]; 0.833333 µM, 24 h): -0.51% | drug-induced phospholipidosis (A549-ACE2 [19]; 0.833333 µM, 48 h): -1.67% | drug-induced phospholipidosis (A549-ACE2 [19]; 0.833333 µM, 72 h): -3.52% | drug-induced phospholipidosis (A549-ACE2 [19]; 3.33333 µM, 24 h): 19.1% | drug-induced phospholipidosis (A549-ACE2 [19]; 3.33333 µM, 48 h): 14.3% | drug-induced phospholipidosis (A549-ACE2 [19]; 3.33333 µM, 72 h): 9.91% | drug-induced phospholipidosis (A549-ACE2 [19]; 6.66667 µM, 24 h): 56.7% | drug-induced phospholipidosis (A549-ACE2 [19]; 6.66667 µM, 48 h): 36.9% | drug-induced phospholipidosis (A549-ACE2 [19]; 6.66667 µM, 72 h): 23.8% | drug-induced phospholipidosis (A549-ACE2 [19]; 10 µM, 24 h): 87.1% | drug-induced phospholipidosis (A549-ACE2 [19]; 10 µM, 48 h): 63.3% | drug-induced phospholipidosis (A549-ACE2 [19]; 10 µM, 72 h): 43.5% | drug-induced phospholipidosis (A549-ACE2 [19]; 30 µM, 24 h): 172% | drug-induced phospholipidosis (A549-ACE2 [19]; 30 µM, 48 h): 141% | drug-induced phospholipidosis (A549-ACE2 [19]; 30 µM, 72 h): 111%

CN(C(=O)Cc1ccc(Cl)c(Cl)c1)[C@H](CN1CCCC1)c1ccccc1
cell viability (Vero E6 [1]; 1 nM): 104% | cell viability (Vero E6 [1]; 10 nM): 101% | cell viability (Vero E6 [1]; 100 nM): 107% | cell viability (Vero E6 [1]; 1000 nM): 102% | cell viability (Vero E6 [1]; 10000 nM): 88.1% | cell viability (HepG2 [2]; 1 nM): 98.1% | cell viability (HepG2 [2]; 10 nM): 105% | cell viability (HepG2 [2]; 100 nM): 106% | cell viability (HepG2 [2]; 1000 nM): 99.4% | cell viability (HepG2 [2]; 10000 nM): 85.3% | cell viability (Calu-3 [3]; 1 nM): 96.1% | cell viability (Calu-3 [3]; 10 nM): 100% | cell viability (Calu-3 [3]; 100 nM): 90.9% | cell viability (Calu-3 [3]; 1000 nM): 97.1% | cell viability (Calu-3 [3]; 10000 nM): 28.9% | cell viability (Caco-2 [4]; 1 nM): 96.7% | cell viability (Caco-2 [4]; 10 nM): 103% | cell viability (Caco-2 [4]; 100 nM): 103% | cell viability (Caco-2 [4]; 1000 nM): 103% | cell viability (Caco-2 [4]; 10000 nM): 76% | cell viability (U2OS [5]; 1 nM): 96.9% | cell viability (U2OS [5]; 10 nM): 99.7% | cell viability (U2OS [5]; 100 nM): 101% | cell viability (U2OS [5]; 1000 nM): 106% | cell viability (U2OS [5]; 10000 nM): 89.9% | relative viability EC50 (Vero E6 [6]): > 10 µM | relative viability EC50 (HepG2 [20]): > 10 µM | relative viability EC50 (Calu-3 [7]): 2.85 µM | relative viability EC50 (Caco-2 [8]): > 10 µM | relative viability EC50 (U2OS [9]): > 10 µM | SARS-CoV-2 infection rate ([10]; 0.3 µM): 97% | SARS-CoV-2 infection rate ([10]; 3 µM): 21% | SARS-CoV-2 infection rate ([10]; 10 µM): 17% | SARS-CoV-2 infection rate ([10]; 30 µM): 36% | morphology score ([11]; 0.3 µM): -0.06 | morphology score ([11]; 3 µM): 0.89 | morphology score ([11]; 10 µM): 0.84 | morphology score ([11]; 30 µM): 0.1 | phospholipidosis EC50 (A549-ACE2 [12]; 24 h): 3.63 µM | phospholipidosis EC50 (A549-ACE2 [12]; 48 h): 5.18 µM | phospholipidosis EC50 (A549-ACE2 [12]; 72 h): 8.35 µM | drug sensitivity score (Vero E6 [13]): 0 | drug sensitivity score (HepG2 [14]): 0.3 | drug sensitivity score (Calu-3 [15]): 4.3 | drug sensitivity score (Caco-2 [16]): 0.7 | drug sensitivity score (U2OS [17]): 0 | cell count ([18]; 0.3 µM): 96% | cell count ([18]; 3 µM): 118% | cell count ([18]; 10 µM): 121% | cell count ([18]; 30 µM): 92% | drug-induced phospholipidosis (A549-ACE2 [19]; 0.3 µM, 24 h): 0.7% | drug-induced phospholipidosis (A549-ACE2 [19]; 0.3 µM, 48 h): 4.43% | drug-induced phospholipidosis (A549-ACE2 [19]; 0.3 µM, 72 h): 3.91% | drug-induced phospholipidosis (A549-ACE2 [19]; 0.833333 µM, 24 h): 4.92% | drug-induced phospholipidosis (A549-ACE2 [19]; 0.833333 µM, 48 h): 3.22% | drug-induced phospholipidosis (A549-ACE2 [19]; 0.833333 µM, 72 h): 2.85% | drug-induced phospholipidosis (A549-ACE2 [19]; 3.33333 µM, 24 h): 51.2% | drug-induced phospholipidosis (A549-ACE2 [19]; 3.33333 µM, 48 h): 36.7% | drug-induced phospholipidosis (A549-ACE2 [19]; 3.33333 µM, 72 h): 31.5% | drug-induced phospholipidosis (A549-ACE2 [19]; 6.66667 µM, 24 h): 90.6% | drug-induced phospholipidosis (A549-ACE2 [19]; 6.66667 µM, 48 h): 77.7% | drug-induced phospholipidosis (A549-ACE2 [19]; 6.66667 µM, 72 h): 65.6% | drug-induced phospholipidosis (A549-ACE2 [19]; 10 µM, 24 h): 95.8% | drug-induced phospholipidosis (A549-ACE2 [19]; 10 µM, 48 h): 97.8% | drug-induced phospholipidosis (A549-ACE2 [19]; 10 µM, 72 h): 90.5% | drug-induced phospholipidosis (A549-ACE2 [19]; 30 µM, 24 h): 112%
